From ChEMBL document CHEMBL2440076, “New triarylpyrazoles as broad-spectrum anticancer agents: design, synthesis, and biological evaluation” (Eur J Med Chem, 2013)

What was measured:
Format in all cases: functional
NCI-H226 [1] = assay: Growth inhibition of human NCI-H226 cells assessed as cell growth at 5X10'-7 M after 48 hrs by sulforhodamine B assay; conditions: NCI-H226, 48 h, read-out: Activity
SNB-19 = assay: Growth inhibition of human SNB19 cells assessed as cell growth at 5X10'-6 M after 48 hrs by sulforhodamine B assay; conditions: SNB-19, 48 h, read-out: Activity
LOX IMVI = assay: Growth inhibition of human LOXIMVI cells assessed as cell growth at 5X10'-5 M after 48 hrs by sulforhodamine B assay; conditions: read-out: Activity
TK-10 = assay: Growth inhibition of human TK10 cells assessed as cell growth at 5X10'-7 M after 48 hrs by sulforhodamine B assay; conditions: TK-10, 48 h, read-out: Activity
786-0 [2] = assay: Growth inhibition of human 786-0 cells assessed as cell growth at 5X10'-9 M after 48 hrs by sulforhodamine B assay; conditions: 786-0, 48 h, read-out: Activity
MCF7 = assay: Growth inhibition of human MCF7 cells assessed as cell growth at 5X10'-7 M after 48 hrs by sulforhodamine B assay; conditions: MCF7, 48 h, read-out: Activity
[3] = Growth inhibition of human NCI-ADR-RES cells assessed as cell growth at 5X10'-9 M after 48 hrs by sulforhodamine B assay; conditions: read-out: Activity
MDA-MB-231 [4] = assay: Growth inhibition of human MDA-MB-231 cells assessed as cell growth at 5X10'-5 M after 48 hrs by sulforhodamine B assay; conditions: MDA-MB-231, 48 h, read-out: Activity
HT-29 = assay: Growth inhibition of human HT-29 cells assessed as cell growth at 5X10'-9 M after 48 hrs by sulforhodamine B assay; conditions: HT-29, 48 h, read-out: Activity
CCRF-CEM [5] = assay: Growth inhibition of human CCRF-CEM cells assessed as cell growth at 5X10'-5 M after 48 hrs by sulforhodamine B assay; conditions: read-out: Activity
OVCAR-3 = assay: Growth inhibition of human OVCAR3 cells assessed as cell growth at 5X10'-7 M after 48 hrs by sulforhodamine B assay; conditions: OVCAR-3, 48 h, read-out: Activity
CCRF-CEM [6] = assay: Growth inhibition of human CCRF-CEM cells assessed as cell growth at 5X10'-8 M after 48 hrs by sulforhodamine B assay; conditions: read-out: Activity
SF-268 = assay: Growth inhibition of human SF268 cells assessed as cell growth at 5X10'-8 M after 48 hrs by sulforhodamine B assay; conditions: SF-268, 48 h, read-out: Activity
UACC-62 = assay: Growth inhibition of human UACC62 cells assessed as cell growth at 5X10'-6 M after 48 hrs by sulforhodamine B assay; conditions: UACC-62, 48 h, read-out: Activity
KM12 = assay: Growth inhibition of human KM12 cells assessed as cell growth at 5X10'-6 M after 48 hrs by sulforhodamine B assay; conditions: KM12, 48 h, read-out: Activity
COLO 205 [7] = assay: Growth inhibition of human COLO205 cells assessed as cell growth at 5X10'-9 M after 48 hrs by sulforhodamine B assay; conditions: COLO 205, 48 h, read-out: Activity
Malme-3M = assay: Growth inhibition of human MALME-3M cells assessed as cell growth at 5X10'-9 M after 48 hrs by sulforhodamine B assay; conditions: read-out: Activity
MOLT-4 = assay: Growth inhibition of human MOLT4 cells assessed as cell growth at 5X10'-8 M after 48 hrs by sulforhodamine B assay; conditions: MOLT-4, 48 h, read-out: Activity
NCI-H322M = assay: Growth inhibition of human NCI-H322M cells assessed as cell growth at 5X10'-9 M after 48 hrs by sulforhodamine B assay; conditions: read-out: Activity
RPMI-8226 [8] = assay: Growth inhibition of human RPMI8226 cells assessed as cell growth at 5X10'-5 M after 48 hrs by sulforhodamine B assay; conditions: RPMI-8226, 48 h, read-out: Activity
MDA-MB-435 = assay: Growth inhibition of human MDA-MB-435 cells assessed as cell growth at 5X10'-9 M after 48 hrs by sulforhodamine B assay; conditions: MDA-MB-435, 48 h, read-out: Activity
MDA-MB-231 [9] = assay: Growth inhibition of human MDA-MB-231 cells assessed as cell growth at 5X10'-9 M after 48 hrs by sulforhodamine B assay; conditions: MDA-MB-231, 48 h, read-out: Activity
T47D [10] = assay: Growth inhibition of human T47D cells assessed as cell growth at 5X10'-9 M after 48 hrs by sulforhodamine B assay; conditions: read-out: Activity
786-0 [11] = assay: Growth inhibition of human 786-0 cells assessed as cell growth at 5X10'-6 M after 48 hrs by sulforhodamine B assay; conditions: 786-0, 48 h, read-out: Activity
NCI-H226 [12] = assay: Growth inhibition of human NCI-H226 cells assessed as cell growth at 5X10'-5 M after 48 hrs by sulforhodamine B assay; conditions: NCI-H226, 48 h, read-out: Activity
RPMI-8226 [13] = assay: Growth inhibition of human RPMI8226 cells assessed as cell growth at 5X10'-6 M after 48 hrs by sulforhodamine B assay; conditions: RPMI-8226, 48 h, read-out: Activity
IGROV-1 = assay: Growth inhibition of human IGROV1 cells assessed as cell growth at 5X10'-7 M after 48 hrs by sulforhodamine B assay; conditions: IGROV-1, 48 h, read-out: Activity
SK-OV-3 = assay: Growth inhibition of human SKOV3 cells assessed as cell growth at 5X10'-8 M after 48 hrs by sulforhodamine B assay; conditions: SK-OV-3, 48 h, read-out: Activity
HOP-62 = assay: Growth inhibition of human HOP62 cells assessed as cell growth at 5X10'-5 M after 48 hrs by sulforhodamine B assay; conditions: HOP-62, 48 h, read-out: Activity
NCI-H23 = assay: Growth inhibition of human NCI-H23 cells assessed as cell growth at 5X10'-7 M after 48 hrs by sulforhodamine B assay; conditions: NCI-H23, 48 h, read-out: Activity
[14] = Growth inhibition of human Hs 578T cells assessed as cell growth at 5X10'-8 M after 48 hrs by sulforhodamine B assay; conditions: read-out: Activity
COLO 205 [15] = assay: Growth inhibition of human COLO205 cells assessed as cell growth at 5X10'-6 M after 48 hrs by sulforhodamine B assay; conditions: COLO 205, 48 h, read-out: Activity
HCT-116 = assay: Growth inhibition of human HCT116 cells assessed as cell growth at 5X10'-6 M after 48 hrs by sulforhodamine B assay; conditions: HCT-116, 48 h, read-out: Activity
SN12C = assay: Growth inhibition of human SN12C cells assessed as cell growth at 5X10'-8 M after 48 hrs by sulforhodamine B assay; conditions: read-out: Activity
SW-620 = assay: Growth inhibition of human SW620 cells assessed as cell growth at 5X10'-5 M after 48 hrs by sulforhodamine B assay; conditions: SW-620, 48 h, read-out: Activity
T47D [16] = assay: Growth inhibition of human T47D cells assessed as cell growth at 5X10'-6 M after 48 hrs by sulforhodamine B assay; conditions: read-out: Activity
A549 = assay: Growth inhibition of human A549/ATCC cells assessed as cell growth at 5X10'-9 M after 48 hrs by sulforhodamine B assay; conditions: A549, 48 h, read-out: Activity

Row | Structure (SMILES) | growth at 0.5 µM (NCI-H226 [1]) | growth at 5 µM (SNB-19) | growth at 50 µM (LOX IMVI) | growth at 0.5 µM (TK-10) | growth at 0.005 µM (786-0 [2]) | growth at 0.5 µM (MCF7) | growth at 0.005 µM [3] | growth at 50 µM (MDA-MB-231 [4]) | growth at 0.005 µM (HT-29) | growth at 50 µM (CCRF-CEM [5]) | growth at 0.5 µM (OVCAR-3) | growth at 0.05 µM (CCRF-CEM [6]) | growth at 0.05 µM (SF-268) | growth at 5 µM (UACC-62) | growth at 5 µM (KM12) | growth at 0.005 µM (COLO 205 [7]) | growth at 0.005 µM (Malme-3M) | growth at 0.05 µM (MOLT-4) | growth at 0.005 µM (NCI-H322M) | growth at 50 µM (RPMI-8226 [8]) | further results
1 | COc1cc(-c2nn(-c3cccc(NC(=O)Nc4cc(C(F)(F)F)cc(C(F)(F)F)c4)c3)cc2-c2ccncc2)ccc1Cl | 83% | -9% | -86% | 78% | 100% | 68% | 105% | -85% | 110% | -8% | 45% | 94% | 105% | -66% | -71% | 107% | 90% | 105% | 97% | 3% | growth at 0.005 µM (MDA-MB-435): 98%; growth at 0.005 µM (MDA-MB-231 [9]): 101%; growth at 0.005 µM (T47D [10]): 101%; growth at 5 µM (786-0 [11]): -60%; growth at 50 µM (NCI-H226 [12]): -4%; growth at 5 µM (RPMI-8226 [13]): 3%; growth at 0.5 µM (IGROV-1): 76%; growth at 0.05 µM (SK-OV-3): 103%; growth at 50 µM (HOP-62): -95%; growth at 0.5 µM (NCI-H23): 85%; growth at 0.05 µM [14]: 93%; growth at 5 µM (COLO 205 [15]): -94%; growth at 5 µM (HCT-116): -52%; growth at 0.05 µM (SN12C): 91%; growth at 50 µM (SW-620): -65%; growth at 5 µM (T47D [16]): 10%; growth at 0.005 µM (A549): 96%
2 | COc1cc(-c2nn(-c3cccc(NC(=O)Nc4ccc(Cl)c(Cl)c4)c3)cc2-c2ccncc2)ccc1Cl | 82% | 21% | -45% | 83% | 100% | 68% | 104% | -54% | 102% | 2% | 64% | 98% | 102% | -56% | -24% | 109% | 103% | 113% | 104% | -11% | growth at 0.005 µM (MDA-MB-435): 97%; growth at 0.005 µM (MDA-MB-231 [9]): 92%; growth at 0.005 µM (T47D [10]): 97%; growth at 5 µM (786-0 [11]): -5%; growth at 50 µM (NCI-H226 [12]): 4%; growth at 5 µM (RPMI-8226 [13]): -10%; growth at 0.5 µM (IGROV-1): 90%; growth at 0.05 µM (SK-OV-3): 106%; growth at 50 µM (HOP-62): -9%; growth at 0.5 µM (NCI-H23): 91%; growth at 0.05 µM [14]: 94%; growth at 5 µM (COLO 205 [15]): -89%; growth at 5 µM (HCT-116): 6%; growth at 0.05 µM (SN12C): 94%; growth at 50 µM (SW-620): 7%; growth at 5 µM (T47D [16]): 9%; growth at 0.005 µM (A549): 98%
3 | COc1cc(-c2nn(-c3cccc(NC(=O)Nc4cccc(C(F)(F)F)c4)c3)cc2-c2ccncc2)ccc1Cl | 84% | -8% | -86% | 79% | 95% | 60% | 99% | -56% | 99% | 3% | 56% | 102% | 93% | -73% | -37% | 98% | 86% | 92% | 89% | -8% | growth at 0.005 µM (MDA-MB-435): 95%; growth at 0.005 µM (MDA-MB-231 [9]): 103%; growth at 0.005 µM (T47D [10]): 95%; growth at 5 µM (786-0 [11]): -9%; growth at 50 µM (NCI-H226 [12]): 7%; growth at 5 µM (RPMI-8226 [13]): -10%; growth at 0.5 µM (IGROV-1): 85%; growth at 0.05 µM (SK-OV-3): 99%; growth at 50 µM (HOP-62): -32%; growth at 0.5 µM (NCI-H23): 90%; growth at 0.05 µM [14]: 96%; growth at 5 µM (COLO 205 [15]): -78%; growth at 5 µM (HCT-116): 3%; growth at 0.05 µM (SN12C): 97%; growth at 50 µM (SW-620): -6%; growth at 5 µM (T47D [16]): 18%; growth at 0.005 µM (A549): 97%
